Assay results as given in US20170105953A1, “METHOD FOR SUPPRESSING DIABETES AND/OR HEPATIC LIPIDS USING TORMENTIC ACID” (priority 2015, published 2017).
Several values for one entry are separate records, joined by “and”; a condition that tells them apart may be missing. Equal entries are not always repeated.

How the values were obtained:
[1] = oral glucose tolerance test (OGTT) in normal mice; type: in vivo; conditions: 12 h fasted ICR mice; 0.2, 0.4 and 0.8 g/kg orally 30 min before oral glucose load 1 g/kg; from 30 to 120 min
Method: For part 1, an oral glucose tolerance test (OGTT) was performed on 12 h fasted ICR mice (n=5) that were allowed access to 0.2, 0.4, and 0.8 g/kg PTA or an equivalent amount of vehicle (water), which were given orally 30 min before an oral glucose load (1 g/kg body wt). The control group was given glucose, whereas the normal group was not. Blood samples were collected from the retro-orbital sinus of fasted mice at the time of the glucose administration (0) and every 30 min until 120 min after glucose administration.

[2] = hepatic lipids in high-fat diet-fed mice; type: in vivo; conditions: HF diet-fed C57BL/6J mice, mean ± SE, n=9
Excerpt: (§1) For part 2, C57BL/6J mice (4 weeks old) were obtained from the National Laboratory Animal Breeding and Research Center. The mice were divided randomly into two groups after 7 days acclimation. The control (CON) group (n=9) was fed a low-fat diet (diet 12450B, Research Diets, Inc., New Brunswick, N.J., USA), whereas the experimental group was fed a 45% high-fat diet (diet 12451, Research Diets, Inc.) for 12 weeks. The compositions of the experimental diets are given in previous studies. After 8 weeks, the high-fat treated mice were randomly subdivided into four groups (n=9) including PTA1 (0.06 g/kg/day), PTA2 (0.12 g/kg/day) or rosiglitazone (Rosi; 1% methylcellulose, 10 mg/kg body weight) (GlaxoSmithKline) or vehicle and treated by oral gavage one time per day from the 9th to 12th weeks, while the mice were still on the high-fat diet, whereas the CON and high-fat control (HF) mice were treated with vehicle only. At the end, food was withheld from the animals (from 10 p.m. to 10 a.m.). The next day, the mice were sacrificed for blood and tissue collection and analysis. Livers, skeletal muscles, and white adipose tissues (WATs) (including epididymal, mesenteric, and retroperitoneal WAT) were weighed and excised, followed by immediate freezing, and kept at −80° C. for target gene analysis. Heparin (30 units/mL) (Sigma) was added to blood samples. Plasma samples were collected within 30 min by centrifugation at 1600 g for 15 min at 4° C. Plasma was obtained for insulin and leptin assay.
Hepatic lipids were extracted using a previously described protocol. For the hepatic lipid extraction, 0.375 g liver samples were homogenized with 1 mL of distilled water for 5 min. Finally, the dried pellet was resuspended in 0.5 mL of ethanol and analyzed using a triglycerides kit as used for serum lipids.

[3] = tested on: epididymal WAT and liver tissue; assay: histopathology of epididymal WAT and liver tissue; type: in vivo; conditions: HF diet-fed C57BL/6J mice; for hepatocellular ballooning mean score: grade 0 none, 1 a few cells, 2 many cells
Excerpt: as §1
Small pieces of epididymal WAT and liver tissue were fixed with formalin (200 g/kg) neutral buffered solution and embedded in paraffin. Sections (8 μm) were cut and stained with hematoxylin and eosin. For microscopic examination, a microscope (Leica, DM2500) was used, and the images were taken using a Leica Digital camera (DFC-425-C).

[4] = tested on: PEPCK; assay: semiquantitative RT-PCR, liver PEPCK mRNA; type: in vivo, C57BL/6J mice; conditions: HF diet-fed mice, normalized to GAPDH, vs HF group
Excerpt: (§2) For part 2, C57BL/6J mice (4 weeks old) were obtained from the National Laboratory Animal Breeding and Research Center. The mice were divided randomly into two groups after 7 days acclimation. The control (CON) group (n=9) was fed a low-fat diet (diet 12450B, Research Diets, Inc., New Brunswick, N.J., USA), whereas the experimental group was fed a 45% high-fat diet (diet 12451, Research Diets, Inc.) for 12 weeks. The compositions of the experimental diets are given in previous studies. […]
(§3) Total RNA from the liver tissue was isolated with a Trizol reagent (Molecular Research Center, Inc., Cincinnati, Ohio, USA) according to the manufacturer's directions. The integrity of the extracted total RNA was examined by 2% agarose gel electrophoresis, and the RNA concentration was determined by ultraviolet (UV) light absorbency at 260 and 280 nm (spectrophotometer U-2800A, Hitachi). […] The relative density of the band was evaluated using AlphaDigiDoc 1201 software (Alpha Innotech Co., San Leandro, Calif., USA). All of the measured PCR products were normalized to the amount of cDNA of GAPDH in each sample. […]

[5] = tested on: DGAT2; assay: semiquantitative RT-PCR, liver DGAT2 mRNA; type: in vivo, C57BL/6J mice; conditions: HF diet-fed mice, normalized to GAPDH, vs HF group
Excerpt: as §2, §3

[6] = tested on: 11β-HSD1; assay: semiquantitative RT-PCR, liver 11β-HSD1 mRNA; type: in vivo, C57BL/6J mice; conditions: HF diet-fed mice, normalized to GAPDH, vs HF group
Excerpt: as §2, §3

[7] = tested on: SREBP1c; assay: semiquantitative RT-PCR, liver SREBP1c mRNA; type: in vivo, C57BL/6J mice; conditions: HF diet-fed mice, normalized to GAPDH, vs HF group
Excerpt: as §2, §3

[8] = tested on: FAS; assay: semiquantitative RT-PCR, liver FAS mRNA; type: in vivo, C57BL/6J mice; conditions: HF diet-fed mice, normalized to GAPDH, vs HF group
Excerpt: as §2, §3

[9] = tested on: PPARα; assay: semiquantitative RT-PCR, liver PPARα mRNA; type: in vivo, C57BL/6J mice; conditions: HF diet-fed mice, normalized to GAPDH
Excerpt: as §2, §3

[10] = PTA1 0.06 g/kg/day oral gavage 4 weeks
[11] = PTA2 0.12 g/kg/day oral gavage 4 weeks

C[C@@H]1CC[C@]2(C(=O)O)CC[C@]3(C)C(=CC[C@@H]4[C@@]5(C)C[C@@H](O)[C@H](O)C(C)(C)[C@@H]5CC[C@]43C)[C@@H]2[C@]1(C)O [PTA, tormentic acid]
levels of blood glucose (OGTT) [1]: decreased
Liver lipids: Total lipid [2, 10]: 80.1 ± 4.6 mg/g
Liver lipids: Triacylglycerol [2, 10]: 51.7 ± 5.1 µmol/g
Liver lipids: Total lipid [2, 11]: 68.2 ± 5.9 mg/g
Liver lipids: Triacylglycerol [2, 11]: 35.2 µmol/g and 35.2 ± 4.9 µmol/g
average area of adipocytes (epididymal WAT) [3, 10]: 2380.9±108.6 μm2
hepatocellular ballooning mean score [3, 10]: 1.0±0.2
average area of adipocytes (epididymal WAT) [3, 11]: 2243.2±100.9 μm^2
hepatocellular ballooning mean score [3, 11]: 0.7±0.2
mRNA level of PEPCK in liver ([4]; PTA1 0.06 g/kg/day 4 weeks): significantly decrease
mRNA level of PEPCK in liver ([4]; PTA2 0.12 g/kg/day 4 weeks): significantly decrease
mRNA level of DGAT2 in liver ([5]; PTA1 0.06 g/kg/day 4 weeks): significantly decrease
mRNA level of DGAT2 in liver ([5]; PTA2 0.12 g/kg/day 4 weeks): significantly decrease
mRNA level of 11β-HSD1 in liver ([6]; PTA1 0.06 g/kg/day 4 weeks): significantly decrease
mRNA level of 11β-HSD1 in liver ([6]; PTA2 0.12 g/kg/day 4 weeks): significantly decrease
mRNA level of SREBP1c in liver ([7]; PTA1 0.06 g/kg/day 4 weeks): significantly decrease
mRNA level of SREBP1c in liver ([7]; PTA2 0.12 g/kg/day 4 weeks): significantly decrease
mRNA level of FAS in liver ([8]; PTA1 0.06 g/kg/day 4 weeks): significantly decrease
mRNA level of FAS in liver ([8]; PTA2 0.12 g/kg/day 4 weeks): significantly decrease
mRNA levels of PPARα in liver ([9]; PTA1 0.06 g/kg/day 4 weeks): increased
mRNA levels of PPARα in liver ([9]; PTA2 0.12 g/kg/day 4 weeks): increased
